Experimental data published in ChEMBL document CHEMBL1134603 (J Med Chem, 2001).

Legend:
[1] = molecular target: T1, Human immunodeficiency virus type 1 reverse transcriptase (Human immunodeficiency virus 1, UniProt Q72547); assay: Inhibition of HIV-1 reverse transcriptase at 37 degree Centigrade
[2] = molecular target: T1, Human immunodeficiency virus type 1 reverse transcriptase; assay: Inhibition of HIV-1 reverse transcriptase at 25 degree Centigrade

| EC50 [1] [µM] | IC50 [2] [µM] | Compound |
| --- | --- | --- |
| 85 | – | Cc1c(Oc2ccccc2)n(COCCO)c(=O)[nH]c1=O |
| > 250 | – | Cc1c(Sc2ccccc2)[nH]c(=O)[nH]c1=O |
| > 150 | – | Cc1c(Sc2ccccc2)n(C)c(=O)[nH]c1=O |
| – | 0.11 | CCc1ccnc2c1N(C)C(=O)c1cccnc1N2CC |
| 0.004 | – | CCOCn1c(Cc2ccccc2)c(C(C)C)c(=O)[nH]c1=O [EMIVIRINE] |
| 7 | – | Cc1c(Sc2ccccc2)n(COCCO)c(=O)[nH]c1=O [HEPT] |

| Compound | EC50 [1] [µM] | IC50 [2] [µM] |
| --- | --- | --- |
| Cc1c(Cc2ccccc2)n(COCCO)c(=O)[nH]c1=O | 23 | – |
